Results on 16 compounds are retold here after US5434159A, “6,11-cyclyl-1,2,3,4,5,6,11,11a-octahydrobenzo[b]quinolines and compositions and method of use thereof” (Sterling Winthrop Inc., priority 1994, dated 1995).

A word on the Ki: it is a dissociation constant, usually derived from enzyme kinetics or from competition with a known ligand. A word on the IC50: it is the concentration at which inhibition is half-maximal. The low end stands for inhibition by little substance, the high end for a need for much substance.

Structures can show the parent of a compound that is named as a salt.

In test [1] the target is PCP recognition sites (PCP receptor). Put plainly: [^3 H]TCP Radioreceptor Assay (internal screen). To be noted: whole rat brain membranes, [^3 H]TCP approx. 1 nM, room temperature 25 min; mean of at least two separate determinations. The test is classed as binding. Here is the method: [^3 H]TCP Radioreceptor Assay (internal screen)
[^3 H]TCP binding to PCP recognition sites was performed as described by Vignon et al. Brain Research 1983, 280, 194-197. Male Spmgue-Dawley rats were sacrificed by decapitation, and whole brains were homogenized in 10 volumes (wt/vol) of cold Tris-HCl buffer (50 mM, pH 7.7) using a Brinkmann Polytron (setting 6, 30 sec). The homogenate was centrifuged at 40,000×g for 10 min at 4° C. The supernatant was decanted, and the homogenization and centrifugation steps were repeated twice as described above. Following this, the pellet was resuspended in Tris-HCl (5 mM, pH 7.7) at a tissue concentration of 0.5-0.75 g/ml, and one ml aliquots were frozen at -70° C. unto use. The binding characteristics for PCP recognition sites were not altered by the freezing of membrane suspensions.
On the day of the assay, membrane aliquots were thawed, resuspended in fresh 5 mM Tris-HCl buffer at a tissue concentration of 1 mg/ml, and stored on ice until use. Each assay tube contained 100 μl of [^3 H]TCP at a final concentration of approximately 1 nM, 100 μl of various concentrations of the compounds of interest, 500 μl of the tissue suspension and 300 μ of buffer to a final assay volume of 1 ml and a final protein concentration of 0.5 mg/tube. Non-specific binding was defined by addition of a final concentration of 100 μM PCP to blank tubes. All tubes were incubated at room temperature for 25 min before termination of the reaction by rapid filtration over Whatman GF/B glass fiber filters that had been presoaked in a solution of 0.5% polyethyleneimine for at least 1 hr prior to use. Filters were washed with three 4 ml volumes of cold Tris buffer. Following addition of scintillation cocktail, the amount of bound radioactivity was determined by liquid scintillation spectrometry using a Beckman LS 5000 TA liquid scintillation counter with an efficiency for tritium of approximately 55%. Inhibition constants (Ki values) were calculated using the EBDA/LIGAND program (McPherson, J. Pharmacol. Meth. 1985, 14, 213-228), purchased from Elsevier/Biosoft, Inc. Results are reported as Ki values which are expressed as the mean of at least two separate determinations.

The subject of test [2] is NMDA-induced neurotoxicity in cultured cortical neurons. As to the kind of experiment: Antagonism of NMDA-induced Neurotoxicity in Cultured Neurons (LDH activity). The test is classed as cell-based, Swiss-Webster mice. To be noted: 500 μM NMDA for 30 minutes, LDH 24 hours after removal, day 13 cultured cortical neurons. Here is the method:
Antagonism of NMDA-induced Neurotoxicity in Cultured Neurons
Preparation of cultured cortical neurons
Pregnant, Swiss-Webster mice were obtained from Taconic 0 Farms (Germantown, N.Y.) and sacrificed 16 days post conception. Fetuses were removed and placed in a sterile dish containing Hank's balanced salt solution (HBSS), pH 7.4. Brain cortices were dissected, meninges were removed, the tissue was minced and placed into a solution of HBSS containing 0.25% (w/v) trypsin at 37° C. for 15 minutes. Tissue was then triturated with a sterile pasteur pipet, diluted with minimal essential media (Gibco 330-1430), pH 7.4, supplemented with 10% horse serum, 10% fetal calf serum, 2 mM l-glutamine, 21 mM d-glucose, 2.2 g/L sodium bicarbonate, 1000 U/ml penicillin, and 1,000 μg/ml streptomycin. Cells were plated onto Falcon primaria 96 well plates at a final density of 50,000 cells/well and incubated at 37° C. in the presence of 5% (v/v) carbon dioxide. After 5 days, plating media was replaced with maintenance media containing minimal essential media (Gibco 330-1430), pH 7.4, supplemented with 10% horse serum, […], 21 mM d-glucose, 2.2 g/l sodium bicarbonate, 1,000 U/ml penicillin, 1,000 μg/ml streptomycin, and 10 μM cytosine arabinoside. On days 7 and 10, media was replaced with maintenance media as above lacking the cytosine arabinoside. Experiments were conducted on day 13.
Neuroprotection Assessment
Day 13 cultured cortical neurons were washed twice with minimal essential media, pH 7.4 and then exposed for 30 minutes to 500 μM N-methyl-D-aspartic acid (NMDA) with or without varying concentrations of test agents. Dizocilpine (MK-801) at a final concentration of 10 μM MK-801 was routinely included as a positive control. MK-801 and test agents were prepared in minimal essential media supplemented with 21 mM d-glucose and 2.2 g/L sodium bicarbonate (MEM). After 30 minutes, media was replaced with MEM alone. Exposure of neurons to test agents was limited to the NMDA treatment period. […]

Test [3] relates to PCP recognition sites (PCP receptor). As to the kind of experiment: [^3 H]TCP Radioreceptor Assay (external screen). The class given is binding. To be noted: @10 μM; whole rat forebrain membranes, 25° C., 60 minutes. Here is the method:
Representative compounds of the invention were also tested in an external [^3 H]TCP radioreceptor assay using the following protocol:
[^3 H]TCP Radioreceptor Assay (external screen)
A procedure similar to that described above for the [^3 H]TCP radioreceptor assay (internal screen) was utilized except that the whole rat forebrain membranes were incubated at 25° C. for 60 minutes rather than at room temperature for 25 minutes, before termination of the reaction. The results are reported as a percent (%) inhibition of binding at 10 μM.

As to “6,11 [2',3']tetrahydrofuranyl-1,2,3,4,5,6,11,11a-octahydrobenzo [b]quinolizine hydrobromide [Example 8]”, in test [1], the affinity, expressed as Ki, was 606 nM. For the same compound, 12200 nM corresponded to half-maximal inhibition in test [2] (IC50).

Take “6,11 [2',3']tetrahydropyranyl-1,2,3,4,5,6,11,11a-octahydrobenzo[b]quinolizine hydrobromide [Example 7]”: the Ki in test [1] is 1420 nM. Compound `c1ccc2c(c1)C1C3CCCCC3C2N2CCCCC12` (centres unmarked) [Example 1a, 6,11 [1',2']cyclohexyl-1,2,3,4,5,6,11:11a-octahydrobenzo[b]quinolizine] registered a Ki in test [1] of 134 nM. Compound `c1ccc2c(c1)C1c3ccccc3C2N2CCCCC12` (centres unmarked) [Example 1b, 6,11 [1',2']benzeno-1,2,3,4,5,6,11,11a-octahydrobenzo[b]quinolizine] showed a Ki in test [1] of 333 nM. With `CC12c3ccccc3C(C3CCCC31)N1CCCCC12` (centres unmarked) [Example 2, 11-methyl-6,11 [1',2']cyclopentyl-1,2,3,4,5,6,11,11a-octahydrobenzo[b]quinolizine], the Ki in test [1] was found to be 40 nM. For `Oc1ccc2c(c1)C1C3CCCC3C2C2CCCCN21` (centres unmarked) [Example 3b, 8-hydroxy-6,11 [1',2']cyclopentyl-1,2,3,4,5,6,11,11a-octahydrobenzo[b]quinolizine hydrobromide], the Ki in test [1] is 27.9 nM. The compound `Brc1ccc2c(c1)C1C3CCCC3C2N2CCCCC12` (centres unmarked) [Example 4, 9-bromo-6,11 [1',2']cyclopentyl-1,2,3,4,5,6,11,11a-octahydrobenzo[b]quinolizine hydrobromide] registered a Ki in test [1] of 43.7 nM. Compound `Fc1ccc2c(c1)C1C3CCCC3C2N2CCCCC12` (centres unmarked) [Example 5, 9-fluoro-6,11[1',2']cyclopentyl-1,2,3,4,5,6,11,11a-octahydrobenzo[b]quinolizine fumarate] returned a Ki in test [1] of 20 nM. In test [1], `Nc1ccc2c(c1)C1C3CCCC3C2N2CCCCC12` (centres unmarked) [Example 6, 9-amino-6,11 [1',2']cyclopentyl-1,2,3,4,5,6,11,11a-octahydrobenzo[b]quinolizine] registered a Ki of 11.8 nM. In test [1], `c1ccc2c(c1)C1C3CCCC3C2N2CCCCC12` (centres unmarked) [Example 9a, 6,11 [1',2']cyclopentyl-1,2,3,4,5,6,11,11a-octahydrobenzo[b]quinolizine hydrobromide] registered a Ki of 15.4 nM. Besides, the “[^3 H]TCP (external screen) Percent inhibition” value in test [3] is 100%. Further, the IC50 in test [2] (Mus musculus, Cortical neurone) is 100 nM. On to `Oc1ccc2c(c1)C1C3CCCC3C2N2CCCCC12` (centres unmarked) [Example 10b, 9-hydroxy-6:11 [1',2']cyclopentyl-1,2,3,4,5,6,11,11a-octahydrobenzo [b]quinolizine hydrobromide], for which the Ki in test [1] was found to be 2.31 nM. In addition, in test [2] (Mus musculus, Cortical neurone), the IC50 was 42 nM. The compound `c1ccc2c(c1)C1C3CCCCC3C2N2CCCCC12` (centres unmarked) [Example 11, 6,11 [1',2']cyclohexyl-1,2,3,4,5,6,11,11a-octahydrobenzo[b]quinolizine] showed a Ki in test [1] of 219 nM. In test [1], `Oc1cccc2c1C1C3CCCC3C2N2CCCCC12` (centres unmarked) [Example 12b, 10-hydroxy-6,11 [1',2']cyclopentyl-1,2,3,4,5,6,11,11a-octhydrobenzo[b]quinolizine hydrobromide] gave a Ki of 2.29 nM.

Take `CC12c3ccccc3C(C3CCCC31)C1CCCCN12` (centres unmarked) [Example 13, 6-methyl-6,11 [1',2']cyclopentyl-1,2,3,4,5,6,11,11a-octahydrobenzo [b]quinolizine]: in test [1], the Ki worked out at 8.87 nM.

As to `[O-][N+]12CCCCC1C1c3ccccc3C2C2CCCC21` (centres unmarked) [Example 14, 6,11 [1',2']cyclopentyl-1,2,3,4,5,6,11,11a-octahydrobenzo[b]quinolizine-5-oxide], in test [1], affinity was put at a Ki of 33.1 nM. Same read-out and setting: for `C[N+]12CCCCC1C1c3ccccc3C2C2CCCC21` (centres unmarked) [Example 15, 5-methyl-6,11 [1',2']cyclopentyl-1,2,3,4,5,6,11,11a-octahydrobenzo[b]quinolizinium bromide] the value was 22.3 nM.
